Data published in PubChem BioAssay AID328 (DTP/NCI, 2004).
“And” between values parts separate entries of the source, which are not always exact repeats. Identical values can stand only once. Toxic doses and inconclusive results are not listed.

Tested on: BDF1 mice, P388 leukemia ip, median survival T/C
Assay: NCI In Vivo Anticancer Drug Screen. Data for tumor model P388 Leukemia (intraperitoneal) in B6D2F1 (BDF1) mice
Conditions: endpoint: median survival time, higher = longer survival
Outline: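 Survival ratio, drug arm over vehicle arm, in mice with a transplanted tumour.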

[1] = dose: 50.0 mg/kg/injection, schedule: Q01DX009 (ip), vehicle: saline with Tween-80
[2] = dose: 100.0 mg/kg/injection, schedule: Q01DX009 (ip), vehicle: saline with Tween-80
[3] = dose: 200.0 mg/kg/injection, schedule: Q01DX009 (ip), vehicle: saline with Tween-80
[4] = dose: 100.0 mg/kg/injection, schedule: Q04DX003 (ip), vehicle: saline with Tween-80
[5] = dose: 200.0 mg/kg/injection, schedule: Q04DX003 (ip), vehicle: saline with Tween-80
[6] = dose: 400.0 mg/kg/injection, schedule: Q01DX009 (ip), vehicle: saline with Tween-80
[7] = dose: 50.0 mg/kg/injection, schedule: Q04DX003 (ip), vehicle: saline with Tween-80
[8] = dose: 12.5 mg/kg/injection, schedule: Q01DX009 (ip), vehicle: saline with Tween-80
[9] = dose: 25.0 mg/kg/injection, schedule: Q01DX009 (ip), vehicle: saline with Tween-80
[10] = dose: 50.0 mg/kg/injection, schedule: Q01DX009 (ip), vehicle: saline
[11] = dose: 100.0 mg/kg/injection, schedule: Q01DX009 (ip), vehicle: saline
[12] = dose: 200.0 mg/kg/injection, schedule: Q01DX009 (ip), vehicle: saline
[13] = dose: 25.0 mg/kg/injection, schedule: Q01DX009 (ip), vehicle: saline

[O-]/C(CCCl)=N\[n+]1c2c(nc3ccccc31)-c1cccc3cccc-2c13
T/C (dose: 12.5 mg/kg/injection, schedule: Q01DX001 (ip), vehicle: Klucel (hydroxypropylcellulose) (HPC)): 102 % of control
T/C (dose: 25.0 mg/kg/injection, schedule: Q01DX001 (ip), vehicle: Klucel (hydroxypropylcellulose) (HPC)): 100 % of control
T/C (dose: 50.0 mg/kg/injection, schedule: Q01DX001 (ip), vehicle: Klucel (hydroxypropylcellulose) (HPC)): 102 % of control

S=P(N1CCOCC1)(N1CC1)N1CC1
T/C (dose: 2.5 mg/kg/injection, schedule: Q01DX010 (ip), vehicle: saline): 109 % of control
T/C (dose: 20.0 mg/kg/injection, schedule: Q01DX010 (ip), vehicle: saline): 155 % of control

COc1cc(/C=N\NC(=O)OC(C)(C)C)cc(OC)c1OC
T/C [1]: 118 % of control
T/C [2]: 113 % of control
T/C [3]: 86 % of control

CCCn1c(C)nc2cc(C(F)(F)F)cc(N)c21
T/C [4]: 103 % of control
T/C [5]: 92 % of control
T/C (dose: 400.0 mg/kg/injection, schedule: Q04DX003 (ip), vehicle: saline with Tween-80): 97 % of control

O=[N+]([O-])c1ccc(N2CCN(Cc3ccccc3)CC2)c2c1no[n+]2[O-]
T/C (dose: 75.0 mg/kg/injection, schedule: Q04DX003 (ip), vehicle: saline with Tween-80): 101 % of control
T/C (dose: 300.0 mg/kg/injection, schedule: Q04DX003 (ip), vehicle: saline with Tween-80): 121 % of control

Cc1ccc(NS(=O)(=O)c2ccc(F)cc2)cc1Cl
T/C (dose: 100.0 mg/kg/injection, schedule: Q04DX003 (ip), vehicle: Klucel (hydroxypropylcellulose) (HPC)): 109 % of control
T/C (dose: 200.0 mg/kg/injection, schedule: Q04DX003 (ip), vehicle: Klucel (hydroxypropylcellulose) (HPC)): 100 % of control
T/C (dose: 400.0 mg/kg/injection, schedule: Q04DX003 (ip), vehicle: Klucel (hydroxypropylcellulose) (HPC)): 104 % of control

CC(=O)OC(C(=O)N(c1ccccc1)c1ccccc1)c1ccccc1 (stereo unspecified)
T/C [2]: 92 % of control
T/C [6]: 96 % of control

COc1ccccc1NC(=O)O/N=C/c1ccccn1
T/C (dose: 100.0 mg/kg/injection, schedule: Q01DX001 (ip), vehicle: other): 100 % of control
T/C (dose: 200.0 mg/kg/injection, schedule: Q01DX001 (ip), vehicle: other): 95 % of control
T/C (dose: 400.0 mg/kg/injection, schedule: Q01DX001 (ip), vehicle: other): 95 % of control

C(=NCCN=Cc1c[nH]c2ccccc12)c1c[nH]c2ccccc12
T/C [7]: 111 % of control
T/C [2]: 88 % of control
T/C [4]: 103 % of control
T/C [3]: 92 % of control
T/C [5]: 100 % of control
T/C [6]: 103 % of control

CCCC(NC(N)=O)C(CCC)NC(N)=O (stereo unspecified)
T/C [8]: 102 % of control
T/C [9]: 100 % of control
T/C [1]: 89 % of control

CC(=O)Nc1nc(Cl)c([N+](=O)[O-])c(SCc2ccccc2)n1
T/C [8]: 94 % of control
T/C [9]: 98 % of control
T/C (dose: 25.0 mg/kg/injection, schedule: Q04DX003 (ip), vehicle: saline with Tween-80): 116 % of control
T/C [1]: 107 % of control
T/C [7]: 114 % of control
T/C [2]: 96 % of control
T/C [4]: 114 % of control
T/C [5]: 96 % of control

CC([NH-])=O.CC([NH-])=O.[Pt+2]
T/C (dose: 25.0 mg/kg/injection, schedule: Q01DX009 (ip), vehicle: water): 96 % of control
T/C (dose: 50.0 mg/kg/injection, schedule: Q01DX009 (ip), vehicle: water): 104 % of control
T/C (dose: 100.0 mg/kg/injection, schedule: Q01DX009 (ip), vehicle: water): 102 % of control
T/C (dose: 200.0 mg/kg/injection, schedule: Q01DX009 (ip), vehicle: water): 107 % of control
T/C (dose: 300.0 mg/kg/injection, schedule: Q01DX009 (ip), vehicle: water): 112 % of control

O=c1[nH]cnc2nc(Br)[nH]c12
T/C [1]: 100 % of control
T/C [2]: 101 % of control
T/C [3]: 93 % of control
T/C [6]: 101 % of control

C=CCCCCCCCCC(=O)NCCCN1CCOCC1
T/C [9]: 100 % of control
T/C [1]: 109 % of control
T/C [2]: 100 % of control

CC1=NC2=NC(CCCC(=O)Nc3ccc(Cl)cc3)=NC3=CC=CC(=N1)N32
T/C [9]: 104 % of control
T/C [1]: 95 % of control
T/C [2]: 99 % of control

Cc1ccc(CC(=O)O)cc1C
T/C (dose: 44.0 mg/kg/injection, schedule: Q04DX003 (ip), vehicle: saline with Tween-80): 109 % of control
T/C (dose: 66.0 mg/kg/injection, schedule: Q04DX003 (ip), vehicle: saline with Tween-80): 104 % of control
T/C [4]: 104 % of control
T/C (dose: 150.0 mg/kg/injection, schedule: Q04DX003 (ip), vehicle: saline with Tween-80): 104 % of control

COc1ccc(Cc2c3cc(OC)c(OC)cc3cc[n+]2C)cc1OC
T/C [9]: 90 % of control
T/C [1]: 100 % of control
T/C [4]: 108 % of control

CN(C)CCC(=O)c1ccc(Cl)cc1
T/C (dose: 18.8 mg/kg/injection, schedule: Q01DX009 (ip), vehicle: saline with Tween-80): 96 % of control
T/C (dose: 37.5 mg/kg/injection, schedule: Q01DX009 (ip), vehicle: saline with Tween-80): 93 % of control
T/C (dose: 75.0 mg/kg/injection, schedule: Q01DX009 (ip), vehicle: saline with Tween-80): 113 % of control

CC(C)(C)C(=O)C(Oc1ccc(Cl)cc1)n1cncn1 (stereo unspecified)
T/C [1]: 100 % of control
T/C [2]: 100 % of control
T/C [3]: 100 % of control

Cn1nnc(CC(=O)O)n1
T/C [10]: 110 % of control
T/C [11]: 101 % of control
T/C [12]: 99 % of control

CCC(=O)/C=C/C1=C(C)CCCC1(C)C
T/C [7]: 104 % of control
T/C [4]: 104 % of control
T/C [5]: 95 % of control

Nc1cc(=O)[nH]n1-c1ccccc1
T/C [1]: 101 % of control
T/C [2]: 103 % of control
T/C [3]: 98 % of control

CC1(C)OS2(OC(C)(C)c3ccccc32)c2ccccc21
T/C (dose: 50.0 mg/kg/injection, schedule: Q01DX009 (ip), vehicle: other): 101 % of control
T/C (dose: 100.0 mg/kg/injection, schedule: Q01DX009 (ip), vehicle: other): 107 % of control
T/C (dose: 200.0 mg/kg/injection, schedule: Q01DX009 (ip), vehicle: other): 117 % of control

COc1ccc(CN(CC(=O)O)S(C)(=O)=O)cc1
T/C (dose: 100.0 mg/kg/injection, schedule: Q04DX003 (ip), vehicle: other): 103 % of control
T/C (dose: 200.0 mg/kg/injection, schedule: Q04DX003 (ip), vehicle: other): 100 % of control
T/C (dose: 400.0 mg/kg/injection, schedule: Q04DX003 (ip), vehicle: other): 109 % of control

O=N[O-].[Co].[N-]=C=S.[NH2-].[NH2-].[NH2-].[NH2-]
T/C (dose: 6.25 mg/kg/injection, schedule: Q01DX009 (ip), vehicle: saline): 95 % of control
T/C (dose: 12.5 mg/kg/injection, schedule: Q01DX009 (ip), vehicle: saline): 93 % of control
T/C [13]: 112 % of control
T/C [7]: 120 % of control

O=C(Nc1ccc2ccccc2c1)c1ccc(Cl)cc1Cl
T/C (dose: 75.0 mg/kg/injection, schedule: Q01DX001 (ip), vehicle: saline with Tween-80): 95 % of control
T/C (dose: 150.0 mg/kg/injection, schedule: Q01DX001 (ip), vehicle: saline with Tween-80): 86 % of control
T/C (dose: 300.0 mg/kg/injection, schedule: Q01DX001 (ip), vehicle: saline with Tween-80): 90 % of control

CCCCCCCCNC(=O)C1OC(n2cnc3c(N)ncnc32)C(O)C1O (stereo unspecified)
T/C [13]: 95 % of control
T/C [10]: 90 % of control
T/C [11]: 95 % of control and 105 % of control
T/C (dose: 100.0 mg/kg/injection, schedule: Q04DX003 (ip), vehicle: saline): 95 % of control
T/C [12]: 90 % of control and 109 % of control
T/C (dose: 200.0 mg/kg/injection, schedule: Q04DX003 (ip), vehicle: saline): 105 % of control
T/C (dose: 400.0 mg/kg/injection, schedule: Q04DX003 (ip), vehicle: saline): 90 % of control

NC(=O)c1nn(C2OC(CO)C(O)C2O)c2ncnc(N)c12 (stereo unspecified)
T/C (dose: 12.5 mg/kg/injection, schedule: Q01DX009 (ip), vehicle: Klucel (hydroxypropylcellulose) (HPC)): 118 % of control
